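Test compounds were applied to cells in 96-well plates for 48 hours at 5 doses. TGI is the concentration that stops growth completely.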 Where a SMILES comes first, the peptide text is derived from it. [ ]: non-standard residue; d: D form. The star is where a group is joined. Hyp = O=C(O)[CH]1C[CH](O)CN1; Cbz = O=C(OCc1ccccc1)*
Tests used:
Assay in all cases: inhibition of tumour cell growth, NCI panel, 48 h
ACHN renal = test system: ACHN renal
COLO 205 colon = test system: COLO 205 colon
EKVX NSCLC = test system: EKVX NSCLC
HCC-2998 colon = test system: HCC-2998 colon
KM12 colon = test system: KM12 colon
M14 melanoma = test system: M14 melanoma
MALME-3M melanoma = test system: MALME-3M melanoma
NCI-H226 lung = test system: NCI-H226 lung
OVCAR-5 ovarian = test system: OVCAR-5 ovarian
OVCAR-8 ovarian = test system: OVCAR-8 ovarian
PC-3 prostate = test system: PC-3 prostate
SF-295 CNS = test system: SF-295 CNS
SF-539 CNS = test system: SF-539 CNS
SK-MEL-2 melanoma = test system: SK-MEL-2 melanoma
SK-MEL-28 melanoma = test system: SK-MEL-28 melanoma
SNB-19 CNS = test system: SNB-19 CNS
T-47D breast = test system: T-47D breast

CN(CCCN1CCCC1)CCCN(C)C(=O)Cc1ccc(Cl)c(Cl)c1
TGI (ACHN renal): > 68.3 µM | TGI (COLO 205 colon): 41.2 µM | TGI (EKVX NSCLC): 62.5 µM | TGI (HCC-2998 colon): 20.6 µM | TGI (KM12 colon): 60.5 µM | TGI (M14 melanoma): 13.9 µM | TGI (MALME-3M melanoma): 34.6 µM | TGI (NCI-H226 lung): 48 µM | TGI (OVCAR-5 ovarian): 78.1 µM | TGI (OVCAR-8 ovarian): > 100 µM | TGI (PC-3 prostate): > 74.4 µM | TGI (SF-295 CNS): 36.2 µM | TGI (SF-539 CNS): > 53.2 µM | TGI (SK-MEL-2 melanoma): 28.2 µM | TGI (SK-MEL-28 melanoma): 5.26 µM | TGI (SNB-19 CNS): > 72.6 µM | TGI (T-47D breast): 45.9 µM

COC(=O)C1=C(C(=O)OC)N(c2ccncc2)C(c2ccco2)=CC1c1ccccc1[N+](=O)[O-] (stereo not given)
TGI (ACHN renal): 3.47 µM | TGI (COLO 205 colon): 10.2 µM | TGI (EKVX NSCLC): 15.9 µM | TGI (HCC-2998 colon): 3.7 µM | TGI (KM12 colon): 3.38 µM | TGI (MALME-3M melanoma): 18.7 µM | TGI (NCI-H226 lung): 30.3 µM | TGI (OVCAR-5 ovarian): 30.6 µM | TGI (OVCAR-8 ovarian): 28.8 µM | TGI (PC-3 prostate): 31 µM | TGI (SF-295 CNS): 15.8 µM | TGI (SF-539 CNS): 3.6 µM | TGI (SK-MEL-2 melanoma): 36.1 µM | TGI (SK-MEL-28 melanoma): 27.2 µM | TGI (SNB-19 CNS): 41 µM | TGI (T-47D breast): 12.9 µM

NC(=O)CNC(=O)C1CC(O)CN1C(=O)C1CCCN1C(=O)OCc1ccccc1 (stereo not drawn) (Cbz-Pro-[Hyp]-Gly-NH2; configuration not given here)
TGI (ACHN renal): > 100 µM | TGI (COLO 205 colon): > 100 µM | TGI (EKVX NSCLC): > 100 µM | TGI (HCC-2998 colon): > 100 µM | TGI (KM12 colon): > 100 µM | TGI (M14 melanoma): > 100 µM | TGI (MALME-3M melanoma): > 100 µM | TGI (NCI-H226 lung): > 100 µM | TGI (OVCAR-5 ovarian): > 100 µM | TGI (OVCAR-8 ovarian): > 100 µM | TGI (PC-3 prostate): > 100 µM | TGI (SF-295 CNS): > 100 µM | TGI (SK-MEL-2 melanoma): > 100 µM | TGI (SK-MEL-28 melanoma): > 100 µM | TGI (SNB-19 CNS): > 100 µM | TGI (T-47D breast): > 100 µM

O=[N+]([O-])c1ccc2nc(/C=C(\O)c3ccccc3)c(NC34CC5CC(CC(C5)C3)C4)nc2c1
TGI (ACHN renal): > 10 µM | TGI (COLO 205 colon): > 10 µM | TGI (EKVX NSCLC): > 10 µM | TGI (HCC-2998 colon): > 10 µM | TGI (KM12 colon): > 10 µM | TGI (M14 melanoma): > 10 µM | TGI (MALME-3M melanoma): > 10 µM | TGI (NCI-H226 lung): > 10 µM | TGI (OVCAR-5 ovarian): > 10 µM | TGI (OVCAR-8 ovarian): > 10 µM | TGI (PC-3 prostate): > 10 µM | TGI (SF-295 CNS): > 10 µM | TGI (SF-539 CNS): > 10 µM | TGI (SK-MEL-2 melanoma): > 10 µM | TGI (SK-MEL-28 melanoma): > 10 µM | TGI (T-47D breast): > 10 µM

Oc1c(O)c(Cc2ccccc2)c(Cc2ccccc2)c(Cc2ccccc2)c1Cc1ccccc1
TGI (ACHN renal): > 10 µM | TGI (COLO 205 colon): > 10 µM | TGI (EKVX NSCLC): > 10 µM | TGI (HCC-2998 colon): > 10 µM | TGI (KM12 colon): > 10 µM | TGI (M14 melanoma): > 10 µM | TGI (MALME-3M melanoma): > 10 µM | TGI (NCI-H226 lung): > 10 µM | TGI (OVCAR-5 ovarian): > 10 µM | TGI (OVCAR-8 ovarian): > 10 µM | TGI (PC-3 prostate): > 10 µM | TGI (SF-295 CNS): > 10 µM | TGI (SF-539 CNS): > 10 µM | TGI (SK-MEL-2 melanoma): > 10 µM | TGI (SK-MEL-28 melanoma): > 10 µM | TGI (SNB-19 CNS): > 10 µM | TGI (T-47D breast): > 10 µM

CCC1=NC(N/N=C/c2ccco2)=N/C1=C\c1ccco1
TGI (ACHN renal): > 100 µM | TGI (COLO 205 colon): > 100 µM | TGI (EKVX NSCLC): > 100 µM | TGI (HCC-2998 colon): > 100 µM | TGI (KM12 colon): > 100 µM | TGI (M14 melanoma): > 100 µM | TGI (MALME-3M melanoma): > 100 µM | TGI (NCI-H226 lung): > 100 µM | TGI (OVCAR-5 ovarian): > 100 µM | TGI (OVCAR-8 ovarian): > 100 µM | TGI (PC-3 prostate): > 100 µM | TGI (SF-295 CNS): > 100 µM | TGI (SK-MEL-2 melanoma): > 100 µM | TGI (SK-MEL-28 melanoma): > 100 µM | TGI (SNB-19 CNS): > 100 µM | TGI (T-47D breast): > 100 µM

c1cc2nnc1SCCSCCCSCCS2
TGI (ACHN renal): > 100 µM | TGI (COLO 205 colon): > 100 µM | TGI (EKVX NSCLC): > 100 µM | TGI (HCC-2998 colon): > 100 µM | TGI (KM12 colon): > 100 µM | TGI (M14 melanoma): > 100 µM | TGI (MALME-3M melanoma): > 100 µM | TGI (NCI-H226 lung): > 100 µM | TGI (OVCAR-5 ovarian): > 100 µM | TGI (OVCAR-8 ovarian): > 100 µM | TGI (PC-3 prostate): > 100 µM | TGI (SF-295 CNS): > 100 µM | TGI (SF-539 CNS): 58.2 µM | TGI (SK-MEL-2 melanoma): > 100 µM | TGI (SK-MEL-28 melanoma): > 100 µM | TGI (SNB-19 CNS): > 100 µM | TGI (T-47D breast): > 100 µM

From PubChem BioAssay (NCI)
